Measurements taken from patent publication US6497862B2, “Composition for inhibiting body odor and uses thereof” (Kabushiki Kaisha Hayashibara, priority 2000, dated 2002).

Assays:
[1] = Panel test of body-odor-like smell (KAREI-SHU), linoleic acid heated (Experiment 2); set-up: key: +++: the same or higher level of odor; ++: slightly lower level of odor; +: clearly lower level of odor than that of the control system; conditions: compared with control system
From the text: (§1) Upon the HSG samples, the level of a body-odor-like smell was examined on a panel test consisting of six professional panels; the panels directly smelled the samples from each glass vial and judged the level of the smells for each samples with test saccharides based on the following four ranks, i.e., the same or higher level of odor (+++), slightly lower level of odor (++), clearly lower level of odor (+), and odorless (−) as compared with the control system. Summing up the data from the panels, the samples tested were totally evaluated.
The content of 2-nonenal in HSG was measured by GC similarly as in Experiment 1 except that linoleic acid was used as a fatty acid and 2-nonenal, a volatile aldehyde, was used as a standard substance. The level of a body-odor-like smell, particularly with respect to KAREI-SHU, in each sample was evaluated by panel test in accordance with the method in Experiment 1.

[2] = Panel test of body-odor-like smell, oleic acid heated (Experiment 1); set-up: key: +++: the same or higher level of odor; ++: slightly lower level of odor; +: clearly lower level of odor than that of the control system; conditions: oleic acid heated at 105° C. for one hour; six panels, compared with control system
Protocol: One hundred milligrams of oleic acid as a fatty acid, 500 mg of cellulose powder, and 1.25 ml of 0.12 M phosphate buffer (pH 6.0) were placed in a 20-ml glass vial. To the glass vial were added 100 mg of either of crystalline trehalose hydrate, crystalline maltitol anhydride, crystalline sorbitol anhydride, crystalline sucrose anhydride, crystalline maltose anhydride, and crystalline neotrehalose hydride as test saccharides (throughout Experiments 1 to 6, these saccharides are designated as “trehalose”, “maltitol”, sorbitol”, “sucrose”, “maltose”, and “neotrehalose”, respectively), followed by sealing the glass vial with a butyl rubber. As a control system, there provided a glass vial, with no a test saccharide, which differed from the test glass vial on this point. These glass vials were heated at 105° C. for one hour, cooled to ambient temperature, and kept in an aluminum heat-block (abbreviated as “heat block, hereinafter”), which had been preheated to 80° C. After 5-minutes standing, two milliliters of a head space gas (abbreviated as “HSG”, hereinafter) were collected from each glass vial with a syringe.
as §1

[3] = Dispersion of 2-nonenal, GC of HSG (Experiment 4); conditions: 10 mg 2-nonenal + 100 mg test saccharide, 80° C. 5 min (dispersion test); control 8.67
Protocol: Ten milligrams of 2-nonenal, 500 mg of a cellulose powder, and 1.25 ml of 0.12 M phosphate buffer (pH 6.0) were placed in a 20-ml glass vial. To the glass vial was added 100 mg of either of trehalose, maltitol and sucrose as a test saccharide, followed by sealing with a butyl rubber cap. As a control system, there provided a glass vial with no test saccharide that differed from the test systems only in this point. These glass vials were kept in a heat block, preheated to 80° C. After 5-min standing, the glass vials were sampled by two milliliters of HSG with a gas syringe. The content of 2-nonenal in the sampled HSG was measured by GC in accordance with the method in Experiment 2.

[4] = Decomposition of fatty acids by heating, 9-hexadecanoic acid (Experiment 5); conditions: heated at 105° C. for one hour with 100 mg test saccharide; control 38.1
Protocol: One hundred milligrams of linoleic acid or 9-hexadecanoic acid as a fatty acid, 500 mg of a cellulose powder, and 1.25 ml of 0.12 M phosphate buffer (pH 6.0) were placed in a 20-ml glass vial. To the glass vial was added 100 mg of either of trehalose, maltitol and sucrose as a test saccharide, followed by sealing with a butyl rubber cap. As a control system, there provided a glass vial with no test saccharide that differed from the test systems only in this point. These vials were heated at 105° C. for one hour. Another glass vial with no heat treatment, which contained the same ingredients as shown in the above, was provided that differed from the test systems only in that it had no heat treatment.
The above test systems with or without heat treatment and the control system were subjected to the following methyl esterification reaction and analyzed on GC to measure the content of fatty acids; To each glass vial was added 20 ml of a mixture solution of chloroform and methanol (=2:1 by volume) to extract fatty acids, and one milliliter of each resulting extract was collected in a 10-ml eggplant-shape flask, concentrated, and dried in vacuo. […]
Two microliters of each of the resulting n-hexane layers were analyzed on GC using “GAS CHROMATOGRAPH GC-14A”, a GC apparatus, commercialized by Shimadzu Corporation, Tokyo, Japan; and “CAPILLARY COLUMN FFAP”, an analysis column having an inner diameter of 0.25 mm, a length of 30 m, and a membrane thickness of 0.25 μm, commercialized by GL Sciences Inc., Tokyo, Japan, under the conditions of using helium gas as a carrier at a flow rate of 1 ml/min, at a temperature of 250° C. as a sample injection temperature, a column thermostatic bath temperature being kept at 80° C. for five minutes and then increased up to 240° C. at a rate of 5° C./min, and a hydrogen flame ionization detector for detecting fatty acids. Based on the peak area of the obtained gas chromatograms, it was calculated the content of fatty acids, i.e., linoleic acid and 9-hexadecanoic acid, before or after the heat treatment in the test- and control-systems. […]

For `OC[C@@H](O)[C@@H](O[C@H]1O[C@H](CO)[C@@H](O)[C@H](O)[C@H]1O)[C@H](O)[C@@H](O)CO` [Maltitol, maltitol], which “Evaluation of panel test” value [1] is on record?
Its value is “+”.

What about the “Evaluation of panel test” value [2] of the same compound?
The value was “++”.

What about the “Content of 2-nonenal in HSG” value [3] of the same compound?
Its value is 8.27 µg/mL.

And the “Decomposition percentage, 9-Hexadecanoic acid” value (“Decomposition percentage” for short) [4]?
The value was 14.7%.

Which “Evaluation of panel test” value [1] does the source give for `OC[C@H]1O[C@@](CO)(O[C@H]2O[C@H](CO)[C@@H](O)[C@H](O)[C@H]2O)[C@@H](O)[C@@H]1O` [Sucrose, sucrose] here?
Its value is “+++”.

What about the “Evaluation of panel test” value [2] of the same compound?
The value was “+++”.

What about the “Content of 2-nonenal in HSG” value [3] of the same compound?
The value was 8.70 µg/mL.

What about the “Decomposition percentage” value [4] of the same compound?
The value was 38.5%.

For `OC[C@H]1O[C@H](O[C@H]2O[C@H](CO)[C@@H](O)[C@H](O)[C@H]2O)[C@H](O)[C@@H](O)[C@@H]1O` [Trehalose, trehalose], which “Evaluation of panel test” value [1] is on record?
Its value is “+”.

And the “Evaluation of panel test” value [2]?
Its value is “+”.

What about the “Content of 2-nonenal in HSG” value [3] of the same compound?
Its value is 8.60 µg/mL.

And the “Decomposition percentage” value [4]?
The value was 13.2%.
